Values of other authors, collected in patent US20180369425A1, “LINKED AND OTHER pH-TRIGGERED COMPOUNDS” (priority 2017, published 2018).

Columns and labels:
[1] = solvents listed; cited from earlier work
HeLa cells = conditions: two hours, up to 2 μM; cited from earlier work

For `C#CCNC(=O)CCCCC[N+]1=C(/C=C/C=C/C=C/C=C2\N(CCCCS(=O)(=O)[O-])c3ccc4ccccc4c3C2(C)C)C(C)(C)c2c1ccc1ccccc21` [ICG-alkyne], the Solubility [1] is listed as “DMSO, DMF, Acetonitrile, Methanol”.

In the case of amanitin, the “cell death with amanitin alone” value (HeLa cells) is listed as “does not induce cell death”.
